Values after ≈ are worked out from the molar mass of the structure shown.

This note sets out measurements from ChEMBL document CHEMBL4311960, “Two optimized antimicrobial peptides with therapeutic potential for clinical antibiotic-resistant Staphylococcus aureus” (Eur J Med Chem, 2019).

Series [1] is described as follows: Cytotoxicity against human HEK293T cells assessed as cell viability at 640 ug/ml incubated for 48 hrs by MTT assay relative to control. Format: cell-based, HEK-293T. To be noted: read-out: Activity.
In another series the test system is Streptococcus sanguinis. The series can be described thus: Antibacterial activity against Streptococcus sanguinis ATCC 10556 assessed as reduction in bacterial growth incubated for 24 hrs by serial dilution method. The format is functional. The following applies: ATCC 10556, 24 h.
In another series the test system is Streptococcus mutans. Nature of the series: Antibacterial activity against Streptococcus mutans UA159 assessed as reduction in bacterial growth incubated for 24 hrs by serial dilution method. The format is functional. To be noted: UA159, 24 h.
For the next series, the system named is Erythrocyte. The series can be described thus: Hemolytic activity in mouse Erythrocyte assessed as HC10 incubated for 1 hr. The format is ADME, cell-based.
The test system of series [2] is Staphylococcus aureus. The series can be described thus: Antibacterial activity against methicillin-resistant Staphylococcus aureus ATCC 18466 assessed as reduction in bacterial growth incubated for 24 hrs by serial dilution method. The format is functional. The following applies: ATCC 18466, 24 h.
In series [3] the test system is Staphylococcus aureus. The series can be described thus: Antibacterial activity against Staphylococcus aureus ATCC 25923 assessed as reduction in bacterial growth incubated for 24 hrs by serial dilution method. The format is functional. The following applies: ATCC 25923, 24 h.
Series [4] can be described thus: Hemolytic activity in mouse Erythrocyte assessed as HC50 incubated for 1 hr. To be noted: mouse erythrocytes. Format: ADME, cell-based.
A further series relates to Candida albicans. The series can be described thus: Antifungal activity against Candida albicans ATCC 5314 assessed as reduction in fungal growth incubated for 24 hrs by serial dilution method. Format: functional. The following applies: ATCC 5314, 24 h.
Series [5] can be described thus: Hemolytic activity in mouse Erythrocyte at 640 ug/ml incubated for 1 hr relative to control. Format: ADME, cell-based. To be noted: mouse erythrocytes, read-out: %max.
Series [6] in a line: Cytotoxicity against human HEK293T cells assessed as cell viability at 5 to 640 ug/ml incubated for 48 hrs by MTT assay relative to control. Format: cell-based, HEK-293T. The following applies: read-out: Activity. (In general: Formazan colour is commonly taken as a measure of viable cells.)

Take H-WVRKVRRWWKKVKKVVKK-NH2: the viability at 48 h, 640 ug/ml in series [1] is 65.7%. Moreover, the MIC in the series on Streptococcus sanguinis (read-out: MIC), with Streptococcus mutans (read-out: MIC), in the series on Staphylococcus aureus [2] (read-out: MIC), in the series with Staphylococcus aureus [3] (read-out: MIC) and with Candida albicans (read-out: MIC) was under 64 µg/mL each time. Further, the HC10 in the series with Erythrocyte was determined as 80.04 µg/mL. Moreover, the HC50 at 1 h in series [4] was over 640 µg/mL. In addition, the hemolysis at 1 h, 640 ug/ml in series [5] was determined as 25.5%.
H-YIRKIRRFFKKLNKNLKK-NH2: in [6], the viability at 48 h was in the range of 70 to 80%. Moreover, the MIC with Streptococcus sanguinis was over 64 µg/mL; in the series with Streptococcus mutans (read-out: MIC), under 64 µg/mL; in the series on Staphylococcus aureus [2] (read-out: MIC), under 64 µg/mL; in the series with Staphylococcus aureus [3], over 64 µg/mL; with Candida albicans (read-out: MIC), under 64 µg/mL. In addition, the HC10 in the series with Erythrocyte is over 640 µg/mL. In addition, the HC50 at 1 h in series [4] is over 640 µg/mL. Also, the hemolysis at 1 h, 640 ug/ml in [5] amounted to 9.86%.
H-YEIKINRHFKTLKKNLKK-NH2: the viability at 48 h in series [6] was in the range of 70 to 80%. Besides, the MIC was over 64 µg/mL in the series on Streptococcus sanguinis; over 64 µg/mL in the series with Streptococcus mutans; under 64 µg/mL in the series with Staphylococcus aureus [2] (read-out: MIC); under 64 µg/mL in the series on Staphylococcus aureus [3] (read-out: MIC); under 64 µg/mL with Candida albicans (read-out: MIC). In addition, in the series with Erythrocyte, the HC10 was over 640 µg/mL. In addition, the HC50 at 1 h in series [4] is over 640 µg/mL. Besides, the hemolysis at 1 h, 640 ug/ml in series [5] stood at 7.94%.
For H-SYEIKINRHFKTLKKNLKKK-NH2, the viability at 48 h in [6] is 70 to 80%. For the same compound, the minimum inhibitory concentration (MIC) in the series on Streptococcus sanguinis was over 64 µg/mL; with Streptococcus mutans (read-out: MIC), under 64 µg/mL; with Staphylococcus aureus [2] it was over 64 µg/mL; in the series with Staphylococcus aureus [3] (read-out: MIC), under 64 µg/mL; in the series on Candida albicans, over 64 µg/mL. In addition, the HC10 in the series on Erythrocyte is over 640 µg/mL. Moreover, the HC50 at 1 h in [4] is over 640 µg/mL. The hemolysis at 1 h, 640 ug/ml in series [5] turned out to be 6.78%.
Consider H-YIRKIRRFFKKRFKFRKK-NH2, for which, in series [6], the viability at 48 h is 70 to 80%. Also, the MIC in the series with Streptococcus sanguinis (read-out: MIC) came out at 64 µg/mL; in the series on Streptococcus mutans (read-out: MIC), 16 µg/mL; with Staphylococcus aureus [2] (read-out: MIC), 32 µg/mL; in the series on Staphylococcus aureus [3] (read-out: MIC) it was 64 µg/mL; with Candida albicans (read-out: MIC), 32 µg/mL. Also, the HC10 in the series with Erythrocyte was over 640 µg/mL. For the same compound, the HC50 at 1 h in series [4] was over 640 µg/mL. Moreover, the hemolysis at 1 h, 640 ug/ml in series [5] was 8.21%.
Consider `Clc1ccc(COC(Cn2ccnc2)c2ccc(Cl)cc2Cl)cc1` (stereo not given) [ECONAZOLE], for which the MIC in the series on Candida albicans (read-out: MIC) was 4 µg/mL (≈ 10.5 µM).
On to H-YFRTIRRFFKKLFKTLKK-NH2, for which the viability at 48 h in [6] lay in the range of 70 to 80%. Also, the MIC was under 64 µg/mL in the series on Streptococcus sanguinis (read-out: MIC); under 64 µg/mL in the series with Streptococcus mutans (read-out: MIC); 64 µg/mL in the series on Staphylococcus aureus [2] (read-out: MIC); 64 µg/mL with Staphylococcus aureus [3] (read-out: MIC); 64 µg/mL in the series on Candida albicans (read-out: MIC). In addition, the HC10 in the series on Erythrocyte was 640 µg/mL. Also, the 50% haemolytic concentration (HC50) at 1 h in [4] was over 640 µg/mL. Further, the hemolysis at 1 h, 640 ug/ml in series [5] turned out to be 10.3%.

Broadly, the MIC is the lowest concentration that inhibits growth of the organism. For orientation: HC50 means the concentration giving 50% haemolysis.
